Results: US11613552B2, “Pharmaceutical agents, compositions, and methods relating thereto” (Alltech, Inc., priority 2017, dated 2023)

Experiments:
HepG2 cells = experiment: Glucose production assay in HepG2 cells; format: cell-based, human; conditions: tested doses, serum-free glucose production media, 48 hr (FIG. 1)
Method: Equal numbers of Human HepG2 or rat H4IIE cells (1-1.5×10^5 cells/well) were seeded on 96 well plates in 10% FBS-containing media for 24 hr. Cells were then washed twice with PBS, and treated with various concentrations of compounds, metformin or insulin in 100 μl of glucose production media (glucose-free, phenol red-free DMEM media supplemented with 20 mM sodium lactate, 2 mM sodium pyruvate and 5 mM HEPES) at 37° C. for 24 hr (H4IIE cells only) or 48 hr (HepG2 cell only). Cells were also incubated with 0.24% DMSO (the maximal volume of DMSO solvent used in the experiments).
After the above treatments, 50 μl of culture media were collected, and subjected to glucose analysis using Molecular Probes Amplex Red glucose assay kit (Cat #A22189) according to the manufacturer's protocol. Cell numbers or viability in the culture plate after the above compound treatments were determined using Promega's CellTiter96® AQueous One Solution Cell Proliferation Assay kits, according to the manufacturer's protocol and instructions. In brief, after removing 50 μl of culture media for glucose assay, cells were incubated with AQueous One solution (25 μl stock solution and 50 μl prewarmed PBS/per well) at 37° C. for 1 hour, and the absorbance of OD490 nm in each sample was determined by the Bio-Tek microplate reader. Cell viability in culture wells were determined by the subtraction of OD490 nm in cultured cells with the OD490 nm in plain culture media (without seeding of cells). Glucose production in the culture cells were obtained by normalizing the glucose concentration in culture media by cell viability in each well. At least 3 samples per each treatment were examined for the above analysis. Data are presented as Mean±SEM of those samples. Experiments were repeated at least twice.
The half maximal inhibitory concentration (IC50 values) of Compound #43 or metformin for the inhibition of glucose production were determined using the ED50 Plus v1.0 online software.

Lepr^db/db mice = experiment: Glucose tolerance test in Lepr^db/db mice; format: in vivo, mouse
Method: Male Lepr^db/db mice at 38 days of age were intraperitoneally (ip) injected daily with physiological saline ([…]) containing 0.2% DMSO, Compound #C, Compound #50, Compound #68, and/or Compound #43 (25 μg selenium or sulfur equivalents of each compound per kilogram body weight, diluted in sterile physiological saline) for periods ranging from 43-90 days. Body weights of the above treated mice were recorded daily using a balance and any visible abnormal animal gross morphology and walking behavior were monitored daily. After the treatments, animals were fasted overnight and then subjected to blood glucose or HbA1c assays, glucose tolerance tests or tissue collections.
For comparative studies of any potential anti-diabetic effects of Compounds #43, #69 and #70, male Lepr^db/db mice at 41 days of age were intraperitoneally (ip) injected daily with physiological saline ([…]) containing 0.2% DMSO, Compound #43, Compound #69, or Compound #70 (25 μg selenium of each compound per kilogram body weight, diluted in sterile physiological saline). After the treatments for 43 days, animals were fasted overnight and then subjected to blood glucose and glucose tolerance tests. After daily treatments of these compounds for 90 days, sera from these animals were collected and then subjected to blood HbA1c assays.
Glucose tolerance tests were performed as described previously (Li et al, Int J Biol Sci 2008; 4:29-36). Briefly, overnight-fasted Lepr^db/db mice after saline or compound treatments were injected intraperitoneally with 2 grams/kg body weight of 20% D-glucose. Blood glucose levels at time 0 (immediately before the injection of glucose), 0.25, 0.5, 1 and 2 hours after injection of glucose were determined using a glucometer with a maximum glucose measurement capacity of 600 mg/dL. Because of this, blood glucose levels over 600 mg/dL were counted as 600 mg/dL in the data analysis.

G6pc [1] = experiment: QRT-PCR of G6pc mRNA in livers of Lepr^db/db mice; format: in vivo, mouse; conditions: 25 μg selenium/kg ip daily, 52 days (FIG. 9)
Method: Male Lepr^db/db mice (C57BL/6J strain, purchased from The Jackson Laboratory) at 38-days of age were intraperitoneally injected daily with physiological saline ([…]) containing 0.2% DMSO, Compound #50, or Compound #43 (25 μg selenium equivalent of each compound per kilogram body weight, diluted in the sterile physiological saline) for 52 days. After the treatment, livers were collected and subjected RNA analysis.
(§1) Total RNA from saline- or selenium compound-treated Lepr^db/db mice was isolated using a Qiagen RNAeasy RNA isolation kit according to the Manufacturer's protocol. Total RNA from cultured cells was isolated using Trizol (Invitrogen) according to the manufacturer's protocol, and then incubated with DNase I to remove any potential contaminating genomic DNA. RNA samples were subjected to real-time PCR (QRT-PCR) analysis using Applied-Bioscience's RT kit and predesigned Taqman probes (Invitrogen), as described previously (Lan et al EMBO J 2003). Data were normalized by Actin B (Actb) mRNA levels in each sample, and are presented as mean±SEM of 3-5 samples.

G6pc [2] = experiment: QRT-PCR of basal G6pc expression in AML-12 cells; format: cell-based, mouse; conditions: 300 ppb selenium (3.8 μM), serum-free, 24 hr (FIG. 10A)
Method: For RNA analysis of basal G6pc expression (without the presence of diabetic stimuli: 8-CPT/Dex), amplified AML-12 and HepG2 cells were cultured on 24-well plates (0.5-2×10^5 cells/well) overnight in 10% FBS ITS- and Dex-free DMEM/F12 media and 10% FBS EMEM media, respectively. These cells were rinsed twice with PBS to remove residual sera. Then, the PBS-washed HepG2 cells were treated without or with insulin or Compound #43 in serum-free EMEM media for 40 hr. In some experiments, the PBS-washed AML-12 cells were incubated without or with Compound #43 or other selenium compounds in serum-free DMEM/F12 media for 24 hours. In other experiments, amplified AML-12 cells were pretreated without or with Compound #43 (150 or 300 ppb) in 10% FBS but ITS/Dex-free DMEM/F12 media for 24 hr. After 24 hr treatment, AML-12 cells were washed twice with PBS (to remove any residual serum in the culture) and then treated with insulin, Compound #43 or both, in the serum-free DMEM/Dex media for 6 hr.
as §1

Glut4 = experiment: QRT-PCR of Glut4 mRNA in livers of Lepr^db/db mice; format: in vivo, mouse; conditions: 25 μg selenium/kg ip daily, 52 days (FIG. 15)
Method: Male Lepr^db/db mice (C57BL/6J strain, purchased from The Jackson Laboratory) at postnatal day 38 were intraperitoneally injected daily with physiological saline ([…]) containing 0.2% DMSO, Compound #43, or Compound #50 (25 μg selenium of each compound per kilogram body weight, diluted in sterile physiological saline) for 52 days. After treatment, livers were collected and subjected to RNA analysis.
Total liver RNA from saline- or Compound #43-treated Lepr^db/db mice was isolated using a Qiagen RNAeasy RNA isolation kit according to the Manufacturer's protocol. Total RNA from cultured cells was isolated using Trizol (Invitrogen) according to the manufacturer's protocol, and then incubated with DNase I to remove any potential contaminating genomic DNA. RNA samples were subjected to real-time PCR analysis using Applied-Bioscience's RT kit and predesigned Taqman probes (Invitrogen), as described previously (Lan et al EMBO J 2003). Data were normalized by Actin B (Actb) mRNA levels in each sample and are presented as mean±SEM of 3-5 samples.

C2C12 cells = conditions: each individually, mouse skeletal muscle myoblast C2C12 cells; cited from earlier work
brain cells = conditions: cited from earlier work
Tau = conditions: AD brains; cited from earlier work

| Compound | effect on glucose production in HepG2 cells (HepG2 cells) | blood glucose level at 2 hr after glucose injection (Lepr^db/db mice; FIG. 8A, 43 days treatment) | blood glucose levels at 0.25, 0.5 and 1 hr after glucose injection (Lepr^db/db mice; FIG. 8A, 43 days treatment) | effect on G6pc mRNA levels in the liver (G6pc [1]) | effect on G6pc expression (G6pc [2]) | effect on Glut4 mRNA levels in the liver (Glut4) | glucose tolerance (overall) (Lepr^db/db mice; 25 μg selenium/kg ip daily 43 days from day 38, glucose 2 g/kg (FIG. 8A)) | mitochondrial (MT) potential (C2C12 cells) | gluconeogenesis in brain cells (brain cells) | Tau hyperphosphorylation (Tau) |
| --- | --- | --- | --- | --- | --- | --- | --- | --- | --- | --- |
| C[Se]C[C@H]1O[C@@H](n2cnc3c(N)ncnc32)C2OC(=O)OC21 (stereo partly shown) [Compound #50, Adenosine, 5′-Se-methyl-5′-seleno-, cyclic 2′,3′-carbonate] | inhibited glucose production | significant decrease of glucose level | no obvious decrease | slightly, but not significantly, decreased | did not significantly inhibit G6pc expression | numerically increased Glut4 mRNA levels | – | – | – | – |
| C[Se]C[C@H]1O[C@@H](n2cnc3c(N)ncnc32)[C@@H](O)C1O (stereo partly shown) [Compound C, 5′-Methylselenoadenosine, reference compound] | inhibited glucose production | – | – | – | did not significantly inhibit G6pc expression | – | did not improve glucose tolerance | can enhance mitochondrial (MT) potential | can enhance gluconeogenesis in brain cells | can inhibit Tau hyperphosphorylation in AD brains |
| Nc1ncnc2c1ncn2[C@@H]1O[C@H](C[Se]CC[C@H](N)C(=O)O)C(O)C1O (stereo partly shown) [Compound D, 5′-Selenoadenosyl homocysteine, reference compound] | inhibited glucose production | – | – | – | did not significantly inhibit G6pc expression | – | – | can enhance mitochondrial (MT) potential | – | can inhibit Tau hyperphosphorylation in AD brains |
